# Measured values as given in PMC6385203, “Mutations in the palm domain disrupt modulation of acid-sensing ion channel 1a currents by neuropeptides” (Scientific Reports, 2019).
# Peptide text beside a SMILES is read from it.
# Target: T1, ASIC1a N416C (Homo sapiens, UniProt P78348, N416C)
# T1 construct: expressed in transfected cells; host or cells: Xenopus laevis oocytes injected with cRNA
# T1 sequence (P78348 1-528 N416C): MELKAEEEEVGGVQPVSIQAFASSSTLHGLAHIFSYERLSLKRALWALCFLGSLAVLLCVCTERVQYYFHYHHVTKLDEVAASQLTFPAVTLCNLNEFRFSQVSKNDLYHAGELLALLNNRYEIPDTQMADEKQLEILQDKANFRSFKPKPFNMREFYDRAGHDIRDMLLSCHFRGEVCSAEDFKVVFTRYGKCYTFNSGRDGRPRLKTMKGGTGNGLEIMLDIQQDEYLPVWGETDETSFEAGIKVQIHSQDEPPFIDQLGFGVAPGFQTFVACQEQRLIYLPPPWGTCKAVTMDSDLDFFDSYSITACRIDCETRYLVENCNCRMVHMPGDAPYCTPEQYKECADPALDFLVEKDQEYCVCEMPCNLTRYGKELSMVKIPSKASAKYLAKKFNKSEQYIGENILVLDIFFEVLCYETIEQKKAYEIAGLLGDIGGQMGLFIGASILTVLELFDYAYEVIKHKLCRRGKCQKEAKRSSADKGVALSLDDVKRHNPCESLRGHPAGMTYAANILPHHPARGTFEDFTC
# Assay: Isust/Ipeak, TEVC in Xenopus oocytes
# Assay type: cell-based
# Conditions: pH5, n = 6–7, mean ± SEM, read-out: EC50 of FRRFa (Isust/Ipeak)
# Source text: To test the docking predictions, Cys mutants of palm and other proximal residues predicted to interact with the peptide were made. Since most of these residues are large and hydrophilic, the mutation to Cys changed the side chain properties substantially. Therefore, and because MTSET modification of many palm residues leads to currents with a large sustained component[22] that may render the measurement of FRRFa effects difficult, we exposed only the Cys mutants of hydrophobic residues (I307C and V414C) to 1 mM MTSET prior to the experiments with FRRFa. Asp212 was mutated to Gly (and not Cys), since we have previously observed that this residue is very sensitive to mutation, and that it is in most ASIC1a orthologs and even in several human ASIC1a clones a Gly. […] Due to the extremely small FRRFa-induced Isust/Ipeak ratio changes it was not possible to determine the EC50 of FRRFa on these mutants. To learn more about the nature of the Isust/Ipeak ratio increase by the N416C mutation, we measured the EC50 of FRRFa, which was 6 ± 2 μM (Fig. 6e, n = 6–7). […]
# Electrophysiological measurements were performed 1–2 days after cRNA injection. Ion currents were recorded using two-electrode voltage-clamp at a holding potential of −60 mV with a Dagan TEV-200 amplifier (Minneapolis, MN). […] The amplitude of the sustained current was measured in the last two seconds of the pH5 perfusion. […]
compound,measurement,value
"N=C(N)NCCC[C@H](NC(=O)[C@H](CCCNC(=N)N)NC(=O)[C@@H](N)Cc1ccccc1)C(=O)N[C@@H](Cc1ccccc1)C(N)=O [FRRFa, Phe-Arg-Arg-Phe-amide] (H-FRRF-NH2)",EC50,6 ± 2 µM
